Activation data for twelve molecules are collected here from patent US8703776B2 (Cymabay Therapeutics, Inc., priority 2011, dated 2014).

The target in this assay is T1, human GPR131 (Homo sapiens, UniProt Q8TDU6).
T1 construct: expressed in transfected cells
T1 sequence (Q8TDU6 1-330): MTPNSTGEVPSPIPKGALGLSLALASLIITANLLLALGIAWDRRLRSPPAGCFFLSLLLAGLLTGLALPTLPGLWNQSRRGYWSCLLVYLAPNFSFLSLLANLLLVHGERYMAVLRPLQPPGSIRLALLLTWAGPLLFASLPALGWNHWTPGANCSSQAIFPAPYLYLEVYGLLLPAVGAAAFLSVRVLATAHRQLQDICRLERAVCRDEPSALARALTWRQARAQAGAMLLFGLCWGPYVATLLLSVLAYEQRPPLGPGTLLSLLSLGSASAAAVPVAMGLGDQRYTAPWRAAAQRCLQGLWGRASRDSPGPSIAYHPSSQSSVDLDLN
Briefly: Stimulation of cAMP in stable cell line expressing human GPR131 (FRET cAMP kit). Type of assay: cell-based. The following applies: 0.5 h; 1.1 μM compound, relative to maximal stimulatory activity of lithocholic acid at 3.3 μM; 30 minutes at 37° C.; read-out: Percent Activity @ 1.1 μM (of 3.3 uM LCA) (%). The procedure:
This assay was developed using a stable cell line expressing human GPR131.
To measure cAMP activity in response to GPR131 agonists, GPR131 cells suspended in DMEM/F12 medium with 1 mM IBMX were seeded in 384 well plates at 5000 cells per well. After incubating with test compounds at 37° C. for 30 minutes cAMP was measured using a fluorescene resonance energy transfer cAMP kit from Cis Bio (Bedford, Mass.) according to the manufacturer's instructions. Briefly, cells were lysed, and cAMP levels determined by competitive immunoassay using D2 labeled cAMP, and europium cryptate tagged anti cAMP antibody. Decreases in the FRET signal (fluorescence ratio (665 nm/620 […]) correspond to increases in intracellular cAMP levels.
Activities of test compounds in Table 1 below are expressed as % activity at 1.1 μM compound compared to the maximal stimulatory activity of lithocholic acid (LCA) (determined at 3.3 μM LCA)
Regarding `Cc1nn(C)cc1CN(C)Cc1cnc(SCc2c(F)ccc(F)c2F)n1-c1ccc(F)cc1` [Compound 506, 1-(1,3-Dimethyl-1H-pyrazol-4-yl)-N-((1-(4-fluorophenyl)-2-((2,3,6-trifluorobenzyl)thio)-1H-imidazol-5-yl)methyl)-N-methylmethanamine], the activation at 1.1 µM was determined as 100%. As for `COc1ccc(CN(C)C(=O)c2cnc(SCc3c(F)ccc(F)c3F)n2-c2ccc(F)cc2)cc1OC` [Compound 507, N-(3,4-Dimethoxybenzyl)-1-(4-fluorophenyl)-N-methyl-2-((2,3,6-trifluorobenzyl)thio)-1H-imidazole-5-carboxamide], the activation at 1.1 µM was determined as 93%.

Turning to `Cc1nn(C)cc1CNC(=O)c1cnc(SCc2c(F)ccc(F)c2F)n1-c1ccc(F)cc1` [Compound 508, N-((1,3-Dimethyl-1H-pyrazol-4-yl)methyl)-1-(4-fluorophenyl)-2-((2,3,6-trifluorobenzyl)thio)-1H-imidazole-5-carboxamide], the activation at 1.1 µM came out at 82%. As for `CN(Cc1ccncc1)C(=O)c1cnc(SCc2c(F)ccc(F)c2F)n1-c1ccc(F)cc1` [Compound 518, 1-(4-Fluorophenyl)-N-methyl-N-(pyridin-4-ylmethyl)-2-((2,3,6-trifluorobenzyl)thio)-1H-imidazole-5-carboxamide], the activation at 1.1 µM worked out at 100%. As for `CCN(Cc1cn(C)nc1C)C(=O)c1cnc(SCc2c(F)ccc(F)c2F)n1-c1ccc(F)cc1` [Compound 519, N-((1,3-Dimethyl-1H-pyrazol-4-yl)methyl)-N-ethyl-1-(4-fluorophenyl)-2-((2,3,6-trifluorobenzyl)thio)-1H-imidazole-5-carboxamide], the figure is 100%.

As for `CN(Cc1cnn(C)c1)C(=O)c1cnc(SCc2c(F)ccc(F)c2F)n1-c1ccc(F)cc1` [Compound 520, 1-(4-Fluorophenyl)-N-methyl-N-((1-methyl-1H-pyrazol-4-yl)methyl)-2-((2,3,6-trifluorobenzyl)thio)-1H-imidazole-5-carboxamide], the activation at 1.1 µM came to 98%.

Regarding `Cc1nc(C)c(CN(C)C(=O)c2cnc(SCc3c(F)ccc(F)c3F)n2-c2ccc(F)cc2)s1` [Compound 522, N-((2,4-Dimethylthiazol-5-yl)methyl)-1-(4-fluorophenyl)-N-methyl-2-((2,3,6-trifluorobenzyl)thio)-1H-imidazole-5-carboxamide], the activation at 1.1 µM came to 100%. Under `Cc1nn(C)cc1CN(C)C(=O)c1cnc(CCc2c(F)ccc(F)c2F)n1-c1ccc(F)cc1` [Compound 523, N-((1,3-Dimethyl-1H-pyrazol-4-yl)methyl)-1-(4-fluorophenyl)-N-methyl-2-(2,3,6-trifluorophenethyl)-1H-imidazole-5-carboxamide] stands 96%.

Regarding `Cc1nn(C)cc1CN(C)C(=O)c1cnc(SCC(=O)c2ccccc2)n1-c1ccc(F)cc1` [Compound 525, N-((1,3-Dimethyl-1H-pyrazol-4-yl)methyl)-1-(4-fluorophenyl)-N-methyl-2-((2-oxo-2-phenylethyl)thio)-1H-imidazole-5-carboxamide], the activation at 1.1 µM was found to be 96%. As for `Cc1nn(C)cc1C(C)N(C)C(=O)c1cnc(SCc2c(F)ccc(F)c2F)n1-c1ccc(F)cc1` (stereo not drawn) [Compound 526, N-(1-(1,3-Dimethyl-1H-pyrazol-4-yl)ethyl)-1-(4-fluorophenyl)-N-methyl-2-((2,3,6-trifluorobenzyl)thio)-1H-imidazole-5-carboxamide], the figure is 96%.

In the case of `CN(Cc1ccncc1)C(=O)c1cnc(CCc2c(F)ccc(F)c2F)n1-c1ccc(F)cc1` [Compound 528, 1-(4-Fluorophenyl)-N-methyl-N-(pyridin-4-ylmethyl)-2-(2,3,6-trifluorophenethyl)-1H-imidazole-5-carboxamide], the activation at 1.1 µM was found to be 95%. As for `Fc1ccc(-n2c(COCc3ccncc3)cnc2SCc2c(F)ccc(F)c2F)cc1` [Compound 530, 4-(((1-(4-Fluorophenyl)-2-((2,3,6-trifluorobenzyl)thio)-1H-imidazol-5-yl)methoxy)methyl)pyridine], the activation at 1.1 µM is 100%.
